# Source: US20060088882A1, “Methods for the treatment or prevention of obesity” (priority 2002, published 2006)
# Legend:
# VEGFR2 = VEGFR2 (Homo sapiens, UniProt P35968); settings: cited from earlier work
# VEGFR1 = VEGFR1 (Homo sapiens, UniProt P17948); settings: cited from earlier work
# preadipocytes [1] = settings: conditioned media from endothelial cells cultured in the presence of VEGF (50 ng/ml); day 11; normalized to SN control
# Excerpt: Error bars represent standard error.
# The media was changed every other day.
# preadipocytes [2] = settings: exogenous VEGF added to culture media, doses as high as 100 ng/ml; MTT assay
# Protocol: For proliferation assays, 500 preadipocytes and fibroblasts were plated in 96 well plates, and mouse recombinant VEGF164 (50 ng/ml) and PBS were added (FIG. 7B). An MTT assay was performed at day 4, when the cells were still subconfluent in all wells. Culture media were changed with 100 μl of fresh media, and 10 μl of sterile tetrazolium salt, MTT (3[4,5-dimethylthiazol-2-yl]-2,5-diphenyl-tetrazolium bromide, Sigma) was added in each well and incubated for four hours at 37° C. Finally, 100 μl of 10% SDS were added, and after incubation at 37° C. overnight, the plate was read at 490 nm. The optical density values were normalized to that of the PBS treated cells and used as a measure of viability.
# For MTT assays, mouse recombinant VEGF (50 ng/ml) and PBS, and rat IgG (1 μg/ml) were used. MTT assay was performed at day 4. The optical density values were normalized to that of the PBS treated cells and were used as a measure of viability (FIGS. 8B and 8C). MTT assay for preadipocytes after four days of culture with endothelial conditioned media. “FBS” denotes non-conditioned culture media with 10% FBS; “SN” denotes supernatant, endothelial conditioned media cultured with 10% FBS but no other additives; “SN/VEGF/IgG” denotes endothelial conditioned media cultured with 10% FBS, VEGF (50 ng/ml) and non-specific IgG (5 μg/ml). Data are normalized to the control condition (FBS). […]
# preadipocytes [3] = settings: conditioned media from endothelial cells cultured in the presence of VEGF and IgG; MTT assay
# Protocol: For MTT assays, mouse recombinant VEGF (50 ng/ml) and PBS, and rat IgG (1 μg/ml) were used. MTT assay was performed at day 4. The optical density values were normalized to that of the PBS treated cells and were used as a measure of viability (FIGS. 8B and 8C). MTT assay for preadipocytes after four days of culture with endothelial conditioned media. “FBS” denotes non-conditioned culture media with 10% FBS; “SN” denotes supernatant, endothelial conditioned media cultured with 10% FBS but no other additives; “SN/VEGF/IgG” denotes endothelial conditioned media cultured with 10% FBS, VEGF (50 ng/ml) and non-specific IgG (5 μg/ml). Data are normalized to the control condition (FBS). Error bars represent standard error.
# To assess the paracrine effects of VEGF on cell proliferation, preadipocytes were plated as described for FIG. 8B with conditioned media from endothelial cells cultured in the presence of VEGF and IgG. At day 5, the assay was perform as described, and the optical density for the cells cultured in non-conditioned media was used as a measure of viability.
# 3T3-F442A preadipocytes = assay: In vitro differentiation of 3T3-F442A preadipocytes (Oil Red O staining); assay type: cell-based, mouse
# Protocol: FIGS. 5A-5C are pictures of preadipocyte differentiation. FIG. 5A is a transillumination image of differentiated adipocytes in vitro. FIG. 5B is a fluorescence image of differentiated adipocytes in vivo. FIG. 5C is a picture showing the effect of PPARγ inhibition on adipogenesis. Preadipocytes (1×10^5 cells) were plated in a 6-well plate and transfected at a multiplicity of infection of 10^4 plaque forming units/cell using mock- (upper panels) or PPARγ-DN adenovirus (lower panels) and differentiation was promoted by using media containing 10% FBS.
# FIG. 7A and 7B illustrate the effect of VEGF on preadipocyte differentiation and proliferation. To investigate the effects of VEGF on the in vitro differentiation of preadipocytes, 3T3-F442A cells were grown to confluence in media supplemented with calf serum (FCS, maintenance media), and exposed to increasing concentrations of murine recombinant VEGF164 (R&D Systems, Minneapolis, Minn.) from 0-100 ng/ml. […] Adipocyte differentiation was assessed by Oil Red O staining.
# The bar indicates 50 μm. […] MTT assay was performed at day 4. […] Data are normalized to the control condition (FBS). Error bars represent standard error.
# VEGFR2 expression was undetectable in the preadipocytes.
# VEGFR1, sequence (P17948 27-1338, species assumed): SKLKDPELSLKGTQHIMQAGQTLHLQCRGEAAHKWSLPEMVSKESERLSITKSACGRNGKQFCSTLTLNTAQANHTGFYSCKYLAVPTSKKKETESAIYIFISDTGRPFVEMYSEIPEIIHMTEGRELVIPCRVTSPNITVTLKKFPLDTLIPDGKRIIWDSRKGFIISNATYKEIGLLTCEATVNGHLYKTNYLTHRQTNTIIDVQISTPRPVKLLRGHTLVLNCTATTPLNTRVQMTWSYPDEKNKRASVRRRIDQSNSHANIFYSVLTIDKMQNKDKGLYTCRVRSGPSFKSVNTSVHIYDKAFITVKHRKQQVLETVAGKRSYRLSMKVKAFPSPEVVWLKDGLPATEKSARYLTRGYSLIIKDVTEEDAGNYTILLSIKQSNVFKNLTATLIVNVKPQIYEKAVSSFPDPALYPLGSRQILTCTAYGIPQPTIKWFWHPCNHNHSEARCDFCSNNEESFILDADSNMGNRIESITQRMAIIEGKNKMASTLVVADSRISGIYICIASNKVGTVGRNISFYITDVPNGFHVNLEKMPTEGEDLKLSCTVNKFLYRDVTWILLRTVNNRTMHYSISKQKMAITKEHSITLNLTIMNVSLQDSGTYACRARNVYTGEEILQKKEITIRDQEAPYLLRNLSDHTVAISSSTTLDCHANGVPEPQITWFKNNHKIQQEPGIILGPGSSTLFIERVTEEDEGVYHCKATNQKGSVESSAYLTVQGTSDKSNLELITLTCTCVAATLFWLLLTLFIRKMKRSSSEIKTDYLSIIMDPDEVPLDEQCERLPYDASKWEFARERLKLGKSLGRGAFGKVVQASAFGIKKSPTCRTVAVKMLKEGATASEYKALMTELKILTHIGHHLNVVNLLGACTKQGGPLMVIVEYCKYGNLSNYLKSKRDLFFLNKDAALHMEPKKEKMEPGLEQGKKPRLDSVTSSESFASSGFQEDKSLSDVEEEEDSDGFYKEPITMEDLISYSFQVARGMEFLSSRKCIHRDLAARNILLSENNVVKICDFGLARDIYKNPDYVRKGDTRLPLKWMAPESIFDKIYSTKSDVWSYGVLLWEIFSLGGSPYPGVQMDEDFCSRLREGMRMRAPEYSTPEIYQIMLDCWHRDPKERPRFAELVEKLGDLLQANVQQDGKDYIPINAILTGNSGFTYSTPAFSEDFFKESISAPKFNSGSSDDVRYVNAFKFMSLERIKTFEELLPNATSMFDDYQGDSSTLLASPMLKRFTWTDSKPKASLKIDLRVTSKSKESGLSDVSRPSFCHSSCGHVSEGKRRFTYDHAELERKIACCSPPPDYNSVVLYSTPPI
# VEGFR2, sequence (P35968 20-1356, species assumed): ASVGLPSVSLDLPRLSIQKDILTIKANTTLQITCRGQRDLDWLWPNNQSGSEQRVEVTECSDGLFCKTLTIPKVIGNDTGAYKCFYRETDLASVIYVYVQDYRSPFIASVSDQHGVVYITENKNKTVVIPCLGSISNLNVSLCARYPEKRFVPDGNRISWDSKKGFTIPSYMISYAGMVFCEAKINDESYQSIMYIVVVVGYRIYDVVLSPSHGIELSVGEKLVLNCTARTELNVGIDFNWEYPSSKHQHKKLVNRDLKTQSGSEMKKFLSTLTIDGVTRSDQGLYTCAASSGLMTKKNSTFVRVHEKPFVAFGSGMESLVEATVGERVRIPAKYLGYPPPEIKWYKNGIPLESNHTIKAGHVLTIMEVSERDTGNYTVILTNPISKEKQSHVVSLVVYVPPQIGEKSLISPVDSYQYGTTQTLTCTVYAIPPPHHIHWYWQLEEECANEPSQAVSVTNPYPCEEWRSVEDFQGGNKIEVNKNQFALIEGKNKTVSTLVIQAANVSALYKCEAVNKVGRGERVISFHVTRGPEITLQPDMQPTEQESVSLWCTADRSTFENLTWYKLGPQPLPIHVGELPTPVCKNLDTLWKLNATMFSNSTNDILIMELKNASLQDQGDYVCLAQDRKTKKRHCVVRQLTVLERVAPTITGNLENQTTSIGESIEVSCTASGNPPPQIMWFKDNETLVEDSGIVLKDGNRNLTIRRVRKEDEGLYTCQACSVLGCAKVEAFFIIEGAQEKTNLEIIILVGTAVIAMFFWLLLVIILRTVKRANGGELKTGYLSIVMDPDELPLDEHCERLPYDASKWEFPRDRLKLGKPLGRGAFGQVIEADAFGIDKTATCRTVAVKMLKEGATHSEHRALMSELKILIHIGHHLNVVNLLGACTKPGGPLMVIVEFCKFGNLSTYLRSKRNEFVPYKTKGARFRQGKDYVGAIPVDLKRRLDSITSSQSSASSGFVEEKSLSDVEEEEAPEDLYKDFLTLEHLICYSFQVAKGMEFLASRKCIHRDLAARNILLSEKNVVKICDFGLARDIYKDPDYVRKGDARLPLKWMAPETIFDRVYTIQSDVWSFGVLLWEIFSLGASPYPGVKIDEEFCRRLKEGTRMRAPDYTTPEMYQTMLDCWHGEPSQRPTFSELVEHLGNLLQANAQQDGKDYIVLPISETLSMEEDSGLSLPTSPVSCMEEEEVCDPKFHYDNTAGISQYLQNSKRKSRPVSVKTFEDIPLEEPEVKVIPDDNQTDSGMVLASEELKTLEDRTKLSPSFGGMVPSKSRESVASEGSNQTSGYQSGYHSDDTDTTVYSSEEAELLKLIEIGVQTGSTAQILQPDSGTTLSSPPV
Compound,inhibition of VEGFR2 (VEGFR2),inhibition of VEGFR1 (VEGFR1),aP2 expression (differentiation of preadipocytes) (preadipocytes [1]),adipose cell proliferation and survival in vitro (preadipocytes [2]),preadipocyte survival/proliferation (preadipocytes [3]),"differentiation rate of preadipocytes (3T3-F442A preadipocytes; differentiation media (10% FBS), VEGF 0-100 ng/ml or 50 ng/ml, Oil Red O staining)","adipose cell differentiation in vitro (3T3-F442A preadipocytes; exogenous VEGF added to culture media, doses as high as 100 ng/ml)","induction of differentiation in preadipocytes (3T3-F442A preadipocytes; maintenance media (10% calf serum), VEGF 0-100 ng/ml or 50 ng/ml, Oil Red O staining)"
CCCNC(=O)Nc1ccc(Oc2ncnc3cc(OC)c(OC)cc23)cc1Cl [KRN633],inhibits,inhibits,–,–,–,–,–,–
VEGF,–,–,almost three-fold increase,not significantly affected,increased preadipocyte survival/proliferation,did not increase the differentiation rate,not significantly affected,did not induce differentiation
